Values of other authors as cited in patent publication US6669955B2, “Combination dosage form containing individual dosage units of a cholesterol-lowering agent, an inhibitor of the renin-angiotensin system, and aspirin” (Longwood Pharmaceutical Research, Inc., priority 2001, dated 2003).

What was measured:
blood pressure = conditions: relative to angiotensin II; cited from earlier work
[1] = test system: patients at risk for cardiovascular events; conditions: daily administration of low doses (approximately 80 mg); cited from earlier work

Compound	hypertensive activity, as share of that of angiotensin II (blood pressure)	reduction of second heart attacks, strokes, and cardiovascular deaths [1]
angiotensin I (DRVYIHPFHL; Angiotensin-1; UniProt P01019 25-34, looked up) [decapeptide formed by renin acting on angiotensinogen]	about 1%	–
CC(=O)Oc1ccccc1C(=O)O [aspirin, acetylsalicylic acid]	–	at least 25%
